Experimental findings from PubChem BioAssay (NCI) are described below.

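Values below derive from 48-hour exposures of cells grown in 96-well plates, with endpoints linearly interpolated between the two concentrations bracketing the appropriate inhibition level. At the GI50, growth is halved. TGI denotes the concentration required for complete inhibition of growth.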 Where only a bound is given, the exact number is not on record here.

Among the test systems are NCI-H522 lung; PC-3 prostate; HOP-92 NSCLC; CAKI-1 renal; SNB-19 CNS; UO-31 renal; A498 renal; SNB-75 CNS.
Assay in all cases: NCI tumour cell line growth inhibition, 48 h

Take `CP(=O)(O)C(N)c1ccccc1` (centres undefined): the TGI with NCI-H522 lung, in the assay on PC-3 prostate, in the assay on HOP-92 NSCLC, with CAKI-1 renal, in the assay with SNB-19 CNS and in the assay with UO-31 renal was more than 100 µM throughout.

On to `Cc1ccc(Cc2n[nH]c(=O)n2N2C(=O)c3ccccc3C2=O)cc1`, for which the TGI in the assay on A498 renal, with PC-3 prostate, in the assay with HOP-92 NSCLC, with CAKI-1 renal, in the assay with SNB-19 CNS and in the assay with SNB-75 CNS was more than 100 µM throughout. The molecule further registered a TGI with UO-31 renal of more than 100 µM.

Regarding `CC1(C)OC2[C@@H](CO[C@@]3([C@H]4OC(C)(C)O[C@@H]4CO)OC(C)(C)O[C@@H]23)O1` (some centres undefined), the TGI with NCI-H522 lung, with PC-3 prostate, in the assay with HOP-92 NSCLC, in the assay with SNB-19 CNS, in the assay on SNB-75 CNS and in the assay on UO-31 renal was more than 100 µM in each case.

Consider `COc1cc(/C=C/c2ccc(S(N)(=O)=O)cc2)cc(OC)c1`, for which the TGI in the assay on A498 renal was 39.5 µM; in the assay with PC-3 prostate, 56.1 µM; in the assay on HOP-92 NSCLC, 43.9 µM; in the assay with CAKI-1 renal it was 47.3 µM; in the assay with SNB-19 CNS, more than 100 µM; with SNB-75 CNS, 53.1 µM. Also, the TGI in the assay on UO-31 renal worked out at 52 µM. Moreover, the GI50 in the assay with HOP-92 NSCLC is 15 µM; in the assay with CAKI-1 renal, 19 µM.

With `O=c1[nH]c(-c2ccc(Cl)cc2)cc2ccsc12`, the TGI in the assay on NCI-H522 lung was more than 100 µM; in the assay with PC-3 prostate, more than 100 µM; in the assay with HOP-92 NSCLC it was 77.4 µM; in the assay with CAKI-1 renal it was 7.04 µM; in the assay with SNB-19 CNS it was 7.71 µM; with SNB-75 CNS, 23.2 µM. Also, the TGI in the assay with UO-31 renal is more than 100 µM.

Turning to `CCc1n[nH]c(=O)n1N=C(c1ccccc1)c1ccccc1`, the TGI in the assay with NCI-H522 lung, in the assay with A498 renal, in the assay on PC-3 prostate, in the assay with HOP-92 NSCLC, in the assay with CAKI-1 renal and with SNB-19 CNS was more than 100 µM each time. In the assay on UO-31 renal, the TGI was more than 100 µM.

Take `C=CC(=C)CCC(Br)C(C)(C)Cl` (centres undefined): the TGI in the assay on NCI-H522 lung was 54.2 µM; in the assay with PC-3 prostate, more than 100 µM; with HOP-92 NSCLC, more than 100 µM; in the assay with SNB-19 CNS, more than 100 µM; in the assay on SNB-75 CNS it was more than 100 µM; with UO-31 renal, more than 100 µM.

On to `COC(=O)C1Cc2c([nH]c3ccccc23)-c2[nH]c3ccccc3c2CC(NC(C)=O)C(=O)N2CCCC2C(=O)N1` (centres undefined), for which the TGI in the assay on NCI-H522 lung, with PC-3 prostate, in the assay on CAKI-1 renal, with SNB-19 CNS, in the assay on SNB-75 CNS and with UO-31 renal was more than 100 µM each time.

`COc1cccc(/C=N/NC(=O)CN(C)C)c1O`: the TGI in the assay with NCI-H522 lung, in the assay with A498 renal, in the assay with PC-3 prostate, with HOP-92 NSCLC, with CAKI-1 renal and in the assay with SNB-19 CNS was more than 100 µM each time. The TGI with UO-31 renal is more than 100 µM.

As to `CNC(=O)c1cc(Oc2cccc3nc(NC(=O)Nc4ccc(F)cc4F)ccc23)ccn1`, the GI50 in the assay with A498 renal was 0.418 µM; with CAKI-1 renal, 1.61 µM. Also, the TGI was 23.3 µM in the assay on A498 renal and more than 50 µM in the assay on CAKI-1 renal.

Turning to `CCOC(=O)C(NC(=O)c1ccccc1)(Nc1ccc(S(=O)(=O)Nc2ccc(OC)nn2)cc1)C(F)(F)F` (centres undefined), the TGI in the assay on NCI-H522 lung, in the assay with PC-3 prostate, in the assay with HOP-92 NSCLC, with CAKI-1 renal, with SNB-19 CNS and with SNB-75 CNS was more than 100 µM in each case. For the same molecule, the TGI in the assay on UO-31 renal was more than 100 µM.

On to `CC(=O)N1CCN(CCCCN2c3ccccc3Sc3cc(N=[N+]=[N-])ccc32)CC1`, for which the TGI in the assay with NCI-H522 lung came out at 26.3 µM; in the assay on PC-3 prostate, 20 µM; in the assay on CAKI-1 renal it was 24.9 µM; in the assay on SNB-19 CNS it was 29.6 µM; in the assay with SNB-75 CNS, 26.2 µM; in the assay on UO-31 renal, 23.5 µM.

As to `c1ccc(Sc2nc(Sc3ccccc3)nc(Sc3ccccc3)n2)cc1`, the TGI is more than 100 µM in the assay on NCI-H522 lung; 86.8 µM in the assay on A498 renal; more than 100 µM with PC-3 prostate; more than 100 µM in the assay with CAKI-1 renal; more than 100 µM with SNB-19 CNS; more than 100 µM in the assay with UO-31 renal.

Regarding `CN1C(=O)[C@@H]2[C@@H]3c4ccccc4N[C@@H]3c3[nH]c4ccccc4c3[C@@H]2C1=O`, the TGI in the assay with A498 renal is 65.3 µM; in the assay with PC-3 prostate it was 50.5 µM; in the assay on HOP-92 NSCLC, 59.7 µM; in the assay with CAKI-1 renal it was more than 100 µM; in the assay with SNB-19 CNS it was more than 100 µM; in the assay with SNB-75 CNS it was 85.8 µM. Moreover, the TGI in the assay with UO-31 renal stood at 43.9 µM.

In the case of `CCOC(=O)[C@H](CO)Nc1c(O)c2c(c(O)c1Cl)C(=O)C=CC2=O`, the TGI in the assay on NCI-H522 lung, in the assay on PC-3 prostate, in the assay with HOP-92 NSCLC, with CAKI-1 renal, with SNB-19 CNS and with SNB-75 CNS was more than 10 µM in each case.

Consider `CCC1OC2C(CC=C(C)C)=C3OC(C)(O)C(C)(CC)C(=O)C3=C3OC(=O)C=C1C32` (centres undefined), for which the TGI in the assay on A498 renal was more than 100 µM; with PC-3 prostate it was more than 100 µM; in the assay on HOP-92 NSCLC, 71.2 µM; in the assay on CAKI-1 renal it was more than 100 µM; in the assay on SNB-19 CNS, more than 100 µM; in the assay with UO-31 renal it was 69.6 µM.

For the molecule `O=c1cc(NNc2cccc(F)c2)[nH]c(=S)[nH]1`, the TGI in the assay with A498 renal is more than 100 µM; in the assay on PC-3 prostate, more than 100 µM; with HOP-92 NSCLC, 99.5 µM; in the assay with SNB-19 CNS, more than 100 µM; with UO-31 renal, more than 100 µM.

Regarding `CCOC(=O)[C@@]12NN=N[C@@H]1[C@H]1CO[C@H](c3ccccc3)N1C2=O`, the TGI with NCI-H522 lung was 13.1 µM; with A498 renal it was 24.1 µM; with PC-3 prostate, 26 µM; with HOP-92 NSCLC, 8.58 µM; in the assay on CAKI-1 renal, 24.8 µM; in the assay with SNB-19 CNS it was 25 µM.

Consider `N#CC(C#N)C1CN2CCC1CC2` (centres undefined), for which the TGI in the assay on NCI-H522 lung, in the assay with A498 renal, in the assay with PC-3 prostate, with CAKI-1 renal, with SNB-19 CNS and in the assay on SNB-75 CNS was more than 100 µM throughout. The TGI in the assay with UO-31 renal is more than 100 µM.

For the molecule `COc1ccc2nc3c([N+](=O)[O-])ccc(NCCCN(C)C)c3c(N)c2c1`, the TGI was found to be 1.34 µM in the assay on NCI-H522 lung; 2.73 µM with PC-3 prostate; 3.73 µM with HOP-92 NSCLC; 3.71 µM in the assay on CAKI-1 renal; 4.23 µM in the assay on SNB-19 CNS; 3.47 µM with SNB-75 CNS. This molecule also gave a TGI in the assay with UO-31 renal of 3.71 µM.

On to `COc1ccc(Oc2nc3c(N)cc(C(F)(F)F)cc3nc2-c2ccccc2)cc1`, for which the TGI with A498 renal is 55.6 µM; in the assay on PC-3 prostate it was 59.6 µM; in the assay on HOP-92 NSCLC, more than 100 µM; with CAKI-1 renal, 44 µM; in the assay on SNB-19 CNS, more than 100 µM; in the assay with SNB-75 CNS, 40.6 µM. In addition, in the assay on UO-31 renal, the TGI is more than 100 µM.

On to `COc1c(C)c(C/C=C(\C)CCCCO)c(OC)c2ccccc12`, for which the TGI in the assay on NCI-H522 lung was 42.3 µM; with PC-3 prostate it was more than 100 µM; with HOP-92 NSCLC, 80.4 µM; in the assay on CAKI-1 renal, 94.9 µM; in the assay with SNB-19 CNS it was more than 100 µM; with SNB-75 CNS, more than 100 µM. The molecule further had a TGI with UO-31 renal of more than 100 µM.

For the molecule `O=C(c1cccnc1)N1N=C(c2ccc3c(c2)OCO3)CC1(O)c1cc(F)c(Cl)cc1Cl` (centres undefined), the TGI in the assay on NCI-H522 lung is 33.8 µM; in the assay with PC-3 prostate, more than 100 µM; in the assay on HOP-92 NSCLC it was 68.9 µM; in the assay on CAKI-1 renal it was more than 100 µM; in the assay with SNB-19 CNS, more than 100 µM; in the assay with SNB-75 CNS it was 39.8 µM. This molecule also showed a TGI with UO-31 renal of 41.3 µM.

Turning to `CCSc1[nH]c(NC(=NC(C)C)NC(=O)c2ccccc2)c(C(N)=O)c1C(N)=O`, the TGI with PC-3 prostate, in the assay on HOP-92 NSCLC, in the assay with CAKI-1 renal and in the assay with SNB-75 CNS was more than 10 µM in each case.

On to `CN1CCN(Cn2nc(-c3cc(F)c(Cl)cc3Cl)oc2=S)CC1`, for which the GI50 in the assay with NCI-H522 lung is 90.1 µM; in the assay with PC-3 prostate it was 43 µM; in the assay with HOP-92 NSCLC it was more than 100 µM; in the assay with CAKI-1 renal, 34.2 µM; with SNB-19 CNS it was 35.2 µM; in the assay on SNB-75 CNS, 53.3 µM. Moreover, the GI50 with UO-31 renal was 74.1 µM. Moreover, the TGI in the assay with NCI-H522 lung, with PC-3 prostate, in the assay with HOP-92 NSCLC, in the assay on CAKI-1 renal, in the assay on SNB-19 CNS and in the assay on SNB-75 CNS was more than 100 µM throughout. Besides, the TGI in the assay on UO-31 renal is more than 100 µM.

In the case of `O=C(NCCCc1cn[nH]c(=O)n1)c1cccc2nc3ccccc3nc12`, the TGI in the assay with A498 renal, in the assay on PC-3 prostate, with HOP-92 NSCLC, with CAKI-1 renal and in the assay with SNB-19 CNS was more than 100 µM in each case.

As to `Cc1ccc(O)cc1` (tested in a mixture with another compound), the TGI in the assay with NCI-H522 lung, in the assay with A498 renal, in the assay on PC-3 prostate, in the assay on CAKI-1 renal, in the assay on SNB-19 CNS and with UO-31 renal was more than 100 µM each time.

Regarding `O=C1[C@H](O)[C@@H]2CCC[C@@]23CCCN13`, the TGI in the assay on NCI-H522 lung, in the assay on A498 renal, in the assay with HOP-92 NSCLC, in the assay with CAKI-1 renal, in the assay with SNB-75 CNS and in the assay with UO-31 renal was more than 100 µM in each case.
